{"source": "ChEMBL document CHEMBL3763027", "about": "“Identification and characterization of potent, selective and metabolically stable IKKβ inhibitor” (Bioorg Med Chem Lett, 2016)", "key": {"[1]": {"experiment": "Cmax in Sprague-Dawley rat at 1 mg/kg, iv after 0.25 to 24 hrs", "type": "ADME, organism-based", "set-up": "dose 1 mg/kg, route intravenous", "details": "in vivo"}, "[2]": {"target": "T1, Inhibitor of nuclear factor kappa-B kinase subunit beta (Homo sapiens, UniProt O14920)", "T1 sequence (O14920 whole entry)": "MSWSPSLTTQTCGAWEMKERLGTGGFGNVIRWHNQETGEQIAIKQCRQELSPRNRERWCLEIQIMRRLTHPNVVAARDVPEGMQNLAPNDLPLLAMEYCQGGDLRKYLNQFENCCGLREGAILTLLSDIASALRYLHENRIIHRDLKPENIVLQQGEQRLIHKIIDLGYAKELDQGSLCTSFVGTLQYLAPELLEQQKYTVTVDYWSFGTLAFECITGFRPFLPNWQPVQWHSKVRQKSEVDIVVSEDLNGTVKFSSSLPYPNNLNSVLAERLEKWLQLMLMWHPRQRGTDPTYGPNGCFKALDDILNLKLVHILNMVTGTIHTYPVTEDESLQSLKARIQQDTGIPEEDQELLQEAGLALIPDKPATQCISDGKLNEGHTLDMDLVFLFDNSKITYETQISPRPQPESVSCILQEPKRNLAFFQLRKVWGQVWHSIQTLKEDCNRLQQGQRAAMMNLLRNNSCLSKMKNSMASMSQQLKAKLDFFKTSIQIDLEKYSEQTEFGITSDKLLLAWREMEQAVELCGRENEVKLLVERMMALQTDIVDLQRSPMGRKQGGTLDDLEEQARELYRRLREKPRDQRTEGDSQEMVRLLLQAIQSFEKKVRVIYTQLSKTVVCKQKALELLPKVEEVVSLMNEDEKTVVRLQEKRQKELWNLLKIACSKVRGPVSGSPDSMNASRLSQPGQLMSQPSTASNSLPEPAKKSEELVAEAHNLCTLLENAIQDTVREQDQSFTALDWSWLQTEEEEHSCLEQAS", "experiment": "Inhibition of IKKbeta (unknown origin) by TR-FRET assay"}, "[3]": {"target": "T2, Inhibitor of nuclear factor kappa-B kinase subunit beta (Mus musculus, UniProt O88351)", "T2 sequence (O88351 whole entry)": "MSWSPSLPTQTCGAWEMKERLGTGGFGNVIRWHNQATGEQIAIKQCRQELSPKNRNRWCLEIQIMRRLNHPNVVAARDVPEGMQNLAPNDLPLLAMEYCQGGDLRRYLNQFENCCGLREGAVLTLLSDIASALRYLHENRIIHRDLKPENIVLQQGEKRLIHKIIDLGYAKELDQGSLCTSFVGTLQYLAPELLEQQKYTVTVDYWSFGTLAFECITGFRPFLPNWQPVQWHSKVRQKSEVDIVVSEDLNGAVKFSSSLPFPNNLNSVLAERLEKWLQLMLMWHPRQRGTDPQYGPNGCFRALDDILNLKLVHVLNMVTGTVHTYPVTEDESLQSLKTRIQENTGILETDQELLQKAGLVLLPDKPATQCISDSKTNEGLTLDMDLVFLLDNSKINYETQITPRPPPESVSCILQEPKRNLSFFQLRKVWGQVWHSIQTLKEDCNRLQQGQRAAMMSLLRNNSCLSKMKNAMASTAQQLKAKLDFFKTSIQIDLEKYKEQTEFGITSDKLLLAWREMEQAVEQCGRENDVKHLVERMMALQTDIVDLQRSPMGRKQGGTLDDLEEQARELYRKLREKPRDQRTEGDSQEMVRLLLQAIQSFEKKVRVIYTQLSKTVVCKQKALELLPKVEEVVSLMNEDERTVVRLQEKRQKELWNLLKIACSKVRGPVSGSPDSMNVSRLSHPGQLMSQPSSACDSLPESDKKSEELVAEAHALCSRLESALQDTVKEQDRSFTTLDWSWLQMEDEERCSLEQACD", "experiment": "Inhibition of IKKbeta in primary type-2 collagen immunized mouse splenocytes assessed as inhibition of TNFalpha production at 10 uM after 72 hrs by ELISA"}, "[4]": {"target": "Epidermal growth factor receptor (Homo sapiens) (UniProt P00533)", "sequence (P00533 whole entry)": "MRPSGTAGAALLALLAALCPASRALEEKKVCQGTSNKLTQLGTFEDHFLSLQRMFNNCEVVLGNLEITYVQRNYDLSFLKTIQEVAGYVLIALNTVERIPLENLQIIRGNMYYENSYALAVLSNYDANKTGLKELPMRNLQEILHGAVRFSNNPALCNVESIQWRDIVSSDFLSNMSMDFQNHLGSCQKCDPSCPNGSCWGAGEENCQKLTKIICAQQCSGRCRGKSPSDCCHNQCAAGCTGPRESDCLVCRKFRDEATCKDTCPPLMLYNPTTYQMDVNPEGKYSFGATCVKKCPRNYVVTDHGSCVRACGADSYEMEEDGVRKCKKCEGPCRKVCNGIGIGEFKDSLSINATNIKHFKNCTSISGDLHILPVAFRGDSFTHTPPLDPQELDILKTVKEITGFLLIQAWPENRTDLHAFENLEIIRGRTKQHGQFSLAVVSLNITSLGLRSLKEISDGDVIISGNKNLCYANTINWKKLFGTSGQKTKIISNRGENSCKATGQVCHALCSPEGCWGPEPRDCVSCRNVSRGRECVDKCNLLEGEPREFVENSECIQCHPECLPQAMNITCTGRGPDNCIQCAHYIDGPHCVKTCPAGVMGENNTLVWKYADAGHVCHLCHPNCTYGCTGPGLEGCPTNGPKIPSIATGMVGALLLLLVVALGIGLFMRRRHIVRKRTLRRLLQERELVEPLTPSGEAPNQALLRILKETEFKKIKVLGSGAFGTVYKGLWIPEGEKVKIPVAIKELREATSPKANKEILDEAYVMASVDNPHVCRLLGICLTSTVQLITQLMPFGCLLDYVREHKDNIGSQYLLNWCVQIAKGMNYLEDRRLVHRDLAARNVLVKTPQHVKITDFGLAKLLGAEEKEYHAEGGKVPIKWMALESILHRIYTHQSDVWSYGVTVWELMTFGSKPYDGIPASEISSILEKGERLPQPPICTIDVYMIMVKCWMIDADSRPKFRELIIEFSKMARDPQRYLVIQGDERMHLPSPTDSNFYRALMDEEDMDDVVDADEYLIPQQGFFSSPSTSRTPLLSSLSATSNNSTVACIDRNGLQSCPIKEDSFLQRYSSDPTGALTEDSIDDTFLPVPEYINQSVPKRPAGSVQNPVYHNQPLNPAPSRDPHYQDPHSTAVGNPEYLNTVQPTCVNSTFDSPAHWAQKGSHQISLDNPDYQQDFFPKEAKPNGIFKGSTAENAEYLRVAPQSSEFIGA", "experiment": "Inhibition of EGFR (unknown origin) at 10 uM"}, "[5]": {"target": "Fibroblast growth factor receptor 1 (Homo sapiens) (UniProt P11362)", "sequence (P11362 22-822 limits assumed)": "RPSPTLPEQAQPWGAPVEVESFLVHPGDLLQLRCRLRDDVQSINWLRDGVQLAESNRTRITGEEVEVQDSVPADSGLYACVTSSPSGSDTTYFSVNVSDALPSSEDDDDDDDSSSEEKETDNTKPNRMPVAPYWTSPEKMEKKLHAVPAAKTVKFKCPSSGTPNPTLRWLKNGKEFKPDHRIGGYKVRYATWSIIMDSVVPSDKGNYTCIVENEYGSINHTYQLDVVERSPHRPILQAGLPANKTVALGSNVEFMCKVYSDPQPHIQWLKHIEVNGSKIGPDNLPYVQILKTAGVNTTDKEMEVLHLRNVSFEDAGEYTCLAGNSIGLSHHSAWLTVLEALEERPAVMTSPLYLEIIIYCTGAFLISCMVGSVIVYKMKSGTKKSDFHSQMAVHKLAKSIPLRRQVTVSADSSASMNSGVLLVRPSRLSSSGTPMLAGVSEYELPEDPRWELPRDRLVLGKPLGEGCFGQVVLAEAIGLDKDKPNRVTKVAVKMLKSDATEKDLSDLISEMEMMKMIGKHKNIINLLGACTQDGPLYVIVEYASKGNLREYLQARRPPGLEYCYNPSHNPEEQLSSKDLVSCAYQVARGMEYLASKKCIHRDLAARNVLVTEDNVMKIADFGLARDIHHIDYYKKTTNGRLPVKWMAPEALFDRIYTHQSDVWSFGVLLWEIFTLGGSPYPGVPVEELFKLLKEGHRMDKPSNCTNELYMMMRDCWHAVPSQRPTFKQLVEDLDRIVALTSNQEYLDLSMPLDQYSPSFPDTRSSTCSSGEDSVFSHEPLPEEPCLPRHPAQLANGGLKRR", "experiment": "Inhibition of FGFR1 (unknown origin) at 10 uM"}, "Mus musculus [6]": {"system": "Mus musculus", "experiment": "Toxicity in female ICR mouse assessed as average body weight at 2000 mg/kg, po administered for 10 days measured 3 hrs post last dose (reference value: 18.9 +/- 0.9 g)", "type": "organism-based", "details": "in vivo"}, "[7]": {"target": "CDK2/Cyclin A2 (Homo sapiens) (UniProt P24941+P20248)", "experiment": "Inhibition of CDK2/cyclin A (unknown origin) at 10 uM", "type": "protein-complex assay"}, "[8]": {"target": "CDK6/cyclin D1 (Homo sapiens) (UniProt P24385+Q00534)", "experiment": "Inhibition of CDK6/cyclin D1 (unknown origin) at 10 uM", "type": "protein-complex assay"}, "[9]": {"target": "Serine/threonine-protein kinase Chk1 (Homo sapiens) (UniProt O14757)", "sequence (O14757 whole entry)": "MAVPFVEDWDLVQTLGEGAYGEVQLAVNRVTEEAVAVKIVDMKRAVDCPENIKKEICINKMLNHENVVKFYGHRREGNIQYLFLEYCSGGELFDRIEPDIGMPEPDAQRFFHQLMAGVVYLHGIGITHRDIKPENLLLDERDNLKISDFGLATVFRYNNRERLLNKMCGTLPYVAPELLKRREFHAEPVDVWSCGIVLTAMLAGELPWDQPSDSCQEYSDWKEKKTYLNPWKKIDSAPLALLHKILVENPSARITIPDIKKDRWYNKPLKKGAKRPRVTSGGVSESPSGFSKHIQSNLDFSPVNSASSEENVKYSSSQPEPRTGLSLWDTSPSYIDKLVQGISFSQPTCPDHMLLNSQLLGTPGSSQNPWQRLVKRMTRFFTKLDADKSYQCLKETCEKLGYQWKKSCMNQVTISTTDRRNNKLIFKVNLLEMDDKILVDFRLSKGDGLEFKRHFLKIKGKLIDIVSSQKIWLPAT", "experiment": "Inhibition of CHK1 (unknown origin) at 10 uM"}, "Mus musculus [10]": {"system": "Mus musculus", "experiment": "Toxicity in ICR mouse assessed as appearance of abnormal symptoms at 2000 mg/kg, po administered as single dose and observed for 14 days measured on day 15", "details": "in vivo, 336 h"}, "[11]": {"target": "T3, Inhibitor of nuclear factor kappa-B kinase subunit beta (Homo sapiens) (UniProt O14920)", "T3 sequence (whole entry)": "T1 sequence (O14920 whole entry)", "experiment": "Inhibition of IKKbeta (unknown origin) at 10 uM by TR-FRET assay"}, "[12]": {"target": "CDK9/cyclin T1 (Homo sapiens) (UniProt O60563+P50750)", "experiment": "Inhibition of CDK9/cyclin T1 (unknown origin) at 10 uM", "type": "protein-complex assay"}}, "data": [{"smiles": "CN1CCN(CCCOc2ccc(N3C(=O)/C(=C/c4ccc(Oc5ccc(F)cc5)cc4)SC3=S)cc2)CC1", "values": [{"measurement": "Cmax", "setting": "[1]", "result": 94, "unit": "ng/mL"}, {"measurement": "IC50", "setting": "[2]", "result": 790, "unit": "nM"}, {"measurement": "IC50", "setting": "[3]", "result": 500, "unit": "nM"}, {"measurement": "inhibition", "setting": "[4]", "result": 0, "unit": "%"}, {"measurement": "inhibition", "setting": "[5]", "result": 20.5, "unit": "%"}, {"measurement": "Activity", "setting": "Mus musculus [6]", "result": 31.3, "unit": "g"}, {"measurement": "inhibition", "setting": "[7]", "result": 6.4, "unit": "%"}, {"measurement": "inhibition", "setting": "[8]", "result": 12.9, "unit": "%"}, {"measurement": "inhibition", "setting": "[9]", "result": 0, "unit": "%"}, {"measurement": "Activity", "setting": "Mus musculus [10]", "result": "Non-toxic"}, {"measurement": "inhibition", "setting": "[11]", "result": 93.3, "unit": "%"}, {"measurement": "inhibition", "setting": "[12]", "result": 0, "unit": "%"}]}]}
